{"source": "patent US20120251495A1", "about": "“PTERIN BASED THERAPIES FOR INFLAMMATORY CONDITIONS” (priority 2008, published 2012)", "system": "MDA-MB-231 human breast tumor xenographs", "assay": "Antitumor efficacy in nude mice with MDA-MB-231 xenographs, 1st experiment", "type": "in vivo, athymic nude (nu/nu) mice", "conditions": "for Day 60 Rel Tum Vol: mean ± SEM", "method": "The aims of the 1st experiment were to determine a dose-response curve for the (1:4 mol:mol) calcium pterin suspension, to compare the antitumor activity of this suspension to pterin alone (pterin control), and to test the effect of CaPterin mega-dosing at 100 mg/kg/day. Antitumor efficacy was evaluated in nude mice with MDA-MB-231 human tumor xenographs by Perry Scientific (San Diego, Calif.). In the 1st experiment, twenty-three athymic nude (nu/nu) female mice, ages 3-4 weeks, were purchased from Harlan Sprague Dawley, Inc. (Indianapolis, Ind.). 5×10^6 MDA-MB-231 cancer cells were injected subcutaneously into the right flank of each mouse. When tumors reached 3-5 mm in size, twenty mice were divided into four treatment/control groups of five mice each. The four treatment groups were: (1:4 mol:mol) calcium pterin (7 mg/kg/day); pterin (21 mg/kg/day); (1:4 mol:mol) calcium pterin (21 mg/kg/day); and sterile water control. Two mice with outlying tumor sizes or non-tumor takes were excluded shortly after treatment began: one from the pterin group and one from the control group. […] Only one outlier persisted >4 days, for 14 days. Also excluded from the metabolic analysis in the 1st experiment was one mouse from each of the four experimental groups mega-dosed by oral gavage with 100 mg/kg/day CaPterin for tip to 31 days to test for toxicity. All the other mice in the 1st experiment persisted ≧60 days without complications.\nThe control mice in the 1st experiment were treated with sterile water while the control mice in the 2nd experiment were untreated to evaluate the effect of mouse handling and gavaging upon tumor growth. Daily dosing was for 7 days per week. Animals were restrained but not anesthetized for oral dosing. Tumors were measured twice weekly with calipers and body weights taken twice weekly on the day of tumor measurements. Blood was collected from all animals via cardiac puncture at termination (after 70 to 98 days of treatment) and processed to EDTA plasma for analysis. Tumor size measurements for the control group in the 2nd experiment on days 4 and 7 were missed due to a technical oversight.\nThe MDA-MB-231 human breast tumor cell lines were supplied by SRI International (Menlo Park, Calif.) and propagated using standard in vitro cell expansion methods. Briefly, cells were grown in L-15 media from Gibco (Cat. No. 11415-064) supplemented with 2 mM L-Glutamine and 10% Fetal Bovine Serum (FBS). The cells were cultured in an incubator with 5% CO2, 37.5° C., and 80% humidity. Cells were harvested with 0.25% (w/v) Trypsin-0.03% (w/v) EDTA solution. Cells were prepared for injection by standard methods to appropriate concentrations. Animals were temporarily restrained but not anesthetized for the inoculation of the tumor cells. Animals were subcutaneously injected with the tumor cells in a 100-200 μl volume.\nEach animal was individually tracked for tumor growth by external caliper measurements of protruding tumor. Primary tumor sizes were measured using calipers and an approximate tumor volume calculated using the formula 1/2 (a×b^2), where b was the smaller of two perpendicular diameters.\nFor each group, the mean and standard error of the mean (SEM) of the ratio V/Vo, Relative Tumor Volume (RTV), were plotted as a function of treatment time after inoculation. V0 was the tumor volume at Day 0, when treatment began.", "data": [{"substance": "(1:4 mol:mol) calcium pterin [CaPterin]", "values": [{"measurement": "antitumor activity (tumor growth vs control)", "setting": "7 mg/kg/day", "result": "non-significant"}, {"measurement": "Day 60 Rel Tum Vol", "setting": "7 mg/kg/day oral", "result": "24.0 ± 9.0"}, {"measurement": "antitumor activity (tumor growth vs control)", "setting": "21 mg/kg/day", "result": "significantly inhibits"}, {"measurement": "Day 60 Rel Tum Vol", "setting": "21 mg/kg/day oral", "result": "7.9 ± 1.3"}, {"measurement": "T/C ratio (mean treatment tumor volume to mean control tumor volume)", "setting": "21 mg/kg/day, after 60 days", "result": 41, "unit": "%"}, {"measurement": "Spearman rank order correlation rs, Day 60 Relative Tumor Volume versus dose", "setting": "n=14, p=0.005", "result": 0.70}]}]}
